Measurements reported in US20210161788A1, “Anti-Blue Light Dermal Topical Composition and Applications Thereof” (Taiwan AC Scientific Inc., priority 2019, published 2021).

Experiments:
[1] = Penetration rates of UV, blue light and visual light and shading rate of blue light, UV/blue-light detector; format: physicochemical; details: for Penetration rate UV: 380-400 nm; for Penetration rate BL: 405-425 nm; for Penetration rate VL: 520-540 nm; for Shading rate of blue light: VL penetration minus BL penetration
Procedure: Solutions with different concentrations prepared by terephthalylidene dicamphor sulfonic acid are tested with a UV/blue-light detector (Actor-Mater Co., Ltd.) for penetration rates of ultraviolet (UV), blue light (BL) and visual light (VL). The shading rate of blue light is calculated by the formula as follows:
Shading rate of blue light (%)=penetration rate of visual light−penetration rate of blue light
where wavelength ranges of UV, blue light and visual light tested with a UV/blue-light detector (Actor-Mater Co., Ltd.) are 380-400 nm, 405-425 nm and 520-540 nm, respectively.
The 3% terephthalylidene dicamphor sulfonic acid solution (B) and the 3% rutoside solution (C) are prepared by ingredients as shown in formulas in Table 4. Referring to test modes in Embodiment 1 to Embodiment 3, the anti-blue light effects and the shading rates of blue light for solutions (B) and (C) are tested, respectively.
The synergistic effect of rutoside and terephthalylidene dicamphor sulfonic acid on anti-blue light is explored in this embodiment. Prepared by rutoside and terephthalylidene dicamphor sulfonic acid, the mixed solutions with different concentrations are tested for shading rates of blue light according to the test mode as shown in Embodiment 3.

Human Skin = assay: Evaluation of the effect on human skin by the Janus facial analysis system; format: in vivo; details: 3% solution applied on skin
Procedure: Evaluation method: A subject who has applied the 3% terephthalylidene dicamphor sulfonic acid solution on skin surfaces for seven straight days is tested by the Janus facial analysis system for status change of their skin.

In the case of `CC1(C)C2CCC1(CS(=O)(=O)O)C(=O)C2=Cc1ccc(C=C2C(=O)C3(CS(=O)(=O)O)CCC2C3(C)C)cc1` (stereo in doubt) [terephthalylidene dicamphor sulfonic acid], the “Penetration rate UV” value ([1]; 0.5% (W/W) solution) is reported as 3.00 ± 0.00%, the “Penetration rate BL” value ([1]; 0.5% (W/W) solution) is reported as 87.33 ± 0.58% and the “Penetration rate VL” value ([1]; 0.5% (W/W) solution) is reported as 99.00 ± 0.00%. The “Shading rate of blue light” value ([1]; 0.5% (W/W) solution) was 11.67 ± 0.58%, the “Penetration rate UV” value ([1]; 1% (W/W) solution) was 1.67 ± 0.58% and the “Penetration rate BL” value ([1]; 1% (W/W) solution) was 77.00 ± 1.00%. The “Penetration rate VL” value ([1]; 1% (W/W) solution) was 98.67 ± 0.58%, the “Shading rate of blue light” value ([1]; 1% (W/W) solution) was 21.67 ± 0.58% and the “Penetration rate UV” value ([1]; 3% (W/W) solution) was 0.00 ± 0.00%. The “Penetration rate BL” value ([1]; 3% (W/W) solution) was 50.00 ± 1.00%, the “Penetration rate VL” value ([1]; 3% (W/W) solution) was 97.33 ± 0.58% and the “Shading rate of blue light” value ([1]; 3% (W/W) solution) was 47.33 ± 0.58%. The “Penetration rate UV” value ([1]; 5% (W/W) solution) was 0.00 ± 0.00%, the “Penetration rate BL” value ([1]; 5% (W/W) solution) was 42.33 ± 0.58% and the “Penetration rate VL” value ([1]; 5% (W/W) solution) was 97.33 ± 0.58%. For the same compound, the “Shading rate of blue light” value ([1]; 5% (W/W) solution) was 55.00 ± 1.00%, the “Penetration rate UV” value ([1]; 10% (W/W) solution) was 0.00 ± 0.00% and the “Penetration rate BL” value ([1]; 10% (W/W) solution) was 26.33 ± 1.15%. The “Penetration rate VL” value ([1]; 10% (W/W) solution) was 95.00 ± 1.00%, the “Shading rate of blue light” value ([1]; 10% (W/W) solution) was 68.67 ± 0.58% and the “Penetration rate UV” value ([1]; 20% (W/W) solution) was 0.00 ± 0.00%. For the same compound, the “Penetration rate BL” value ([1]; 20% (W/W) solution) was 16.00 ± 1.00%, the “Penetration rate VL” value ([1]; 20% (W/W) solution) was 93.00 ± 1.00% and the “Shading rate of blue light” value ([1]; 20% (W/W) solution) was 77.00 ± 0.00%. For the same compound, the “Average shading rate of blue light” value ([1]; content of anti-blue light substances in a solution 1%) was 22%, the “Average shading rate of blue light” value ([1]; content of anti-blue light substances in a solution 3%) was 47% and the “Reduction of the total average of fine wrinkles” value (Human Skin; after 7 straight days vs before use) was 7%. For the same compound, the “Count of melanin pigmentations at the forehead” value (Human Skin; after 7 straight days, before use 42) was 25, the “Count of melanin pigmentations at one side of the face” value (Human Skin; after 7 straight days, before use 49) was 42 and the “Count of melanin pigmentations at cheeks” value (Human Skin; after 7 straight days, before use 56) was 44. For the same compound, the “Fine wrinkles under eyelids” value (Human Skin; after 7 straight days, before use 57) was 54, the “Total average fine wrinkles” value (Human Skin; after 7 straight days, before use 82) was 75 and the “Crow's feet” value (Human Skin; after 7 straight days, before use 100) was 88.
